From patent US20200165608A1, “INHIBITION OF VASCULAR ENDOTHELIAL CELL-MEDIATED PHAGOCYTIC PROCESSES FOR TREATMENT OF DEMYELINATING CONDITIONS” (FLORIDA STATE UNIVERSITY RESEARCH FOUNDATION, INC., priority 2018, published 2020)

What was measured:
myelin-ECs (BMECs) = test: Myelin degradation into neutral lipids (Oil Red O staining) in myelin-BMECs after autophagy drug treatment; type: cell-based, mouse; conditions: 3-MA 2 mM 48 hr (1 mM elsewhere in the source), chloroquine 10 μM 24 hr, rapamycin 1 μM 24 hr
Experimental: Oil Red O (ORO) staining. ORO staining was performed to detect intracellular neutral lipid accumulation in injured spinal cords and cultured BMECs. Spinal frozen sections or fixed cells were dehydrated in 100% propylene glycol for 5 min, then stained with 0.5% ORO solution at 60° C. for 8 min. The samples were then processed with 85% propylene glycol for 5 min followed by distilled water rinsing for 3 times. Stained samples were imaged with a confocal laser scanning microscope. Starvation and drug treatments for autophagy assays. BMECs cultured with 5% FBS containing medium were used as negative control for autophagy. The positive control for autophagy induction, BMECs, were starved with Hanks Balanced Salt Solution for 6 hr to induce autophagy. 10 μM chloroquine, an inhibitor of lysosomes, or 1 μM of rapamycin, an inducer of autophagy, was added to BMECs cultures for 24 hr after myelin debris treatment. 2 mM of 3-MA, a PI3K inhibitor of autophagy was cultured with ECs for 48 hr, starting from the last 24 hr treatment of myelin debris to the subsequent 24 hr of medium wash. Cells grown on coverslips were fixed and stained with Oil Red 0 for detection of myelin-derived lipids as above described.

BMECs [1] = conditions: 1 mM 3-MA (48 hr), 10 μM chloroquine (24 hr)
Experimental: Propidium iodide (PI) staining assay for cell death analysis. Wild-type BMECs or Atg5 knockout BMECs were cultured with DMEM medium containing 5% FBS in 24-well plate. To test the toxicity of different autophagy-related drugs, BMECs were treated with or without myelin debris and were treated with or without 1 mM 3-MA (48 hr), 10 μM chloroquine (24 hr), or 1 μM rapamycin (24 hr). After reaching 70% confluence, cells were washed with 1×PBS and fixed with 4% PFA. The fixed cells were stained with propidium iodide and Hoechst, followed by imaging and quantification of PI positive nucleus using Nikon Element software.

BMECs [2] = test: In vitro endothelial-to-mesenchymal transition (endoMT) assays; type: cell-based, mouse; conditions: TGF-β1 10 ng/ml
Experimental: In vitro endothelial-to-mesenchymal transition (endoMT) assays. 5×10^3 BMECs were seeded in 24-well plate for endoMT induction. As positive control, recombinant TGF-β1 protein ([…]) was added to BMECs for 72 hr to induce in vitro endoMT. Cells were considered spindle-shaped when the diameter at their longest axis to be 1.5-fold greater than the average diameter of untreated cobblestone BMECs. Myelin debris (1 mg/ml) was added to BMECs for 1, 3, 5, 7, and 10 days and culture medium was changed every 3 days, followed by morphological observation of spindle-shape cells. α-SMA staining was used to confirm the mesenchymal transition. Percentage of spindle-shaped cells and percentage of a-SMA^+/CD31^+ were quantified. To examine the role of TGF-β in myelin-induced endoMT, pan TGF-β neutralizing antibody (20 μg/ml) was added to BMECs together with myelin debris for 10 days and re-supplemented every 3 days.

[3] = q-PCR, immunostaining and western blot

| Compound | myelin degradation into neutral lipids (ORO+ lipids) in myelin-ECs (myelin-ECs (BMECs)) | cell toxicity (cell death by PI staining) (BMECs [1]) | BMEC morphology (induction of endoMT) (BMECs [2]; 3 days) | CD31 expression in BMECs (BMECs [2]; [3]) | a-SMA expression in BMECs (BMECs [2]; [3]) |
| --- | --- | --- | --- | --- | --- |
| Cn1cnc(N)c2ncnc1-2 [3-MA, 3-methyladenine] | significantly inhibited myelin degradation into neutral lipids |  |  |  |  |
| CCN(CC)CCCC(C)Nc1ccnc2cc(Cl)ccc12 (stereo not drawn) [chloroquine] | significantly inhibited myelin degradation into neutral lipids | without causing apparent cell toxicity |  |  |  |
| TGF-β1: Recombinant mouse TGF-β1 (#5231), positive control, strong inducer of endoMT |  |  | elongated and exhibited the same spindle-like morphology as fibroblasts | markedly downregulated CD31 expression | strongly induced a-SMA expression |
